We go through 13 compounds from US12479840B2, “HMG-CoA reductase degradation inducing compound” (Uppthera, priority 2020, dated 2025).

Structures are written as SMILES.

The target of this assay is T1, HMG-CoA reductase (Homo sapiens, UniProt P04035).
T1 construct: endogenous in cells; host or cells: HepG2 (Korea Cell Line Bank)
T1 sequence (P04035 1-888): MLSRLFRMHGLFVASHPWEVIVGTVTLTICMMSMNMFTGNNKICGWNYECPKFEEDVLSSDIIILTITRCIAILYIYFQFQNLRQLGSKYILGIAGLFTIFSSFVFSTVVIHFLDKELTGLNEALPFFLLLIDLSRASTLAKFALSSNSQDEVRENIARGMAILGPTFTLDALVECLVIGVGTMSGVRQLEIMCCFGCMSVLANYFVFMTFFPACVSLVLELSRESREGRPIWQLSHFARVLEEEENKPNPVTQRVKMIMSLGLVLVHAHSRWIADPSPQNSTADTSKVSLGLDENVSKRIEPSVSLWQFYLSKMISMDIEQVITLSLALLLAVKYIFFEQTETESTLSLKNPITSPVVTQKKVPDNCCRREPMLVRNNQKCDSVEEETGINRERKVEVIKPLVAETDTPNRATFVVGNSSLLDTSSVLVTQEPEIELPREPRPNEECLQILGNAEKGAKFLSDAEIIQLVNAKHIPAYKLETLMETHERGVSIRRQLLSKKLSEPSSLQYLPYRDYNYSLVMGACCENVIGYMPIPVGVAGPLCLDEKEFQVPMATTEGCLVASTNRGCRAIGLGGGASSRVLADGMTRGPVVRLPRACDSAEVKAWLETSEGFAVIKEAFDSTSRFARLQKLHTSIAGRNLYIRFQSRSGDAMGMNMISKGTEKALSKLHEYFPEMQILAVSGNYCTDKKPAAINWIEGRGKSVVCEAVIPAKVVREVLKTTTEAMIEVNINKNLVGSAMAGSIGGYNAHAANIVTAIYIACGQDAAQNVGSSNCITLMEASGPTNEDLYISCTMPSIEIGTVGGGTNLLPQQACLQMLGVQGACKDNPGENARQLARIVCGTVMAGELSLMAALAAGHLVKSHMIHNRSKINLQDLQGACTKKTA
The experiment in a line: HMG-CoA reductase (HMGCR) degradation in HepG2 cells by western blotting. As to conditions: treated for 18 hours, ratio of HMG-CoA reductase to GAPDH, read-out: DC50. The class given is cell-based. Summed up:
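HepG2 cells (passage P105–P110) treated 18 hours with compounds in 10-point three-fold dilutions from 3 μM. RIPA lysates (15 μg protein, BCA-quantified) run on SDS-PAGE and immunoblotted for HMGCR (1:500) with GAPDH (1:20000) as loading control, primary antibodies 16 hours at 4° C.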
For `C[C@H]1C=C2C=C[C@H](C)[C@H](CC[C@@H]3C[C@@H](O)CC(=O)O3)[C@H]2[C@@H](OC(=O)NCCCCCCNc2cccc3c2C(=O)N(C2CCC(=O)NC2=O)C3=O)C1` (stereo partly drawn) [Compound 59, (1S,3R,7S,8S,8aR)-8-(2-((2R,4R)-4-hydroxy-6-oxotetrahydro-2H-pyran-2-yl)ethyl)-3,7-dimethyl-1,2,3,7,8,8a-hexahydronaphthalen-1-yl (6-((2-(2,6-dioxopiperidin-3-yl)-1,3-dioxoisoindolin-4-yl)amino)hexyl)carbamate], the DC50 is 50 to 500 nM. With `C[C@H]1C=C2C=C[C@H](C)[C@H](CC[C@@H]3C[C@@H](O)CC(=O)O3)[C@H]2[C@@H](OC(=O)NCCCCCCCNc2cccc3c2C(=O)N(C2CCC(=O)NC2=O)C3=O)C1` (stereo partly drawn) [Compound 60, (1S,3R,7S,8S,8aR)-8-(2-((2R,4R)-4-hydroxy-6-oxotetrahydro-2H-pyran-2-yl)ethyl)-3,7-dimethyl-1,2,3,7,8,8a-hexahydronaphthalen-1-yl (7-((2-(2,6-dioxopiperidin-3-yl)-1,3-dioxoisoindolin-4-yl)amino)heptyl)carbamate], the DC50 is 50 to 500 nM. The same measure for `C[C@H]1C=C2C=C[C@H](C)[C@H](CC[C@@H]3C[C@@H](O)CC(=O)O3)[C@H]2[C@@H](OC(=O)NCCCCCCCCNc2cccc3c2C(=O)N(C2CCC(=O)NC2=O)C3=O)C1` (stereo partly drawn) [Compound 61, (1S,3R,7S,8S,8aR)-8-(2-((2R,4R)-4-hydroxy-6-oxotetrahydro-2H-pyran-2-yl)ethyl)-3,7-dimethyl-1,2,3,7,8,8a-hexahydronaphthalen-1-yl (8-((2-(2,6-dioxopiperidin-3-yl)-1,3-dioxoisoindolin-4-yl)amino)octyl)carbamate]: below 50 nM; for `C[C@H]1C=C2C=C[C@H](C)[C@H](CC[C@@H]3C[C@@H](O)CC(=O)O3)[C@H]2[C@@H](OC(=O)NCCCCCCCCCNc2cccc3c2C(=O)N(C2CCC(=O)NC2=O)C3=O)C1` (stereo partly drawn) [Compound 62, (1S,3R,7S,8S,8aR)-8-(2-((2R,4R)-4-hydroxy-6-oxotetrahydro-2H-pyran-2-yl)ethyl)-3,7-dimethyl-1,2,3,7,8,8a-hexahydronaphthalen-1-yl (9-((2-(2,6-dioxopiperidin-3-yl)-1,3-dioxoisoindolin-4-yl)amino)nonyl)carbamate]: 50 to 500 nM.

On to `C[C@H]1C=C2C=C[C@H](C)[C@H](CC[C@@H]3C[C@@H](O)CC(=O)O3)[C@H]2[C@@H](OC(=O)NCCCCCCCCCCNc2cccc3c2C(=O)N(C2CCC(=O)NC2=O)C3=O)C1` (stereo partly drawn) [Compound 63, (1S,3R,7S,8S,8aR)-8-(2-((2R,4R)-4-hydroxy-6-oxotetrahydro-2H-pyran-2-yl)ethyl)-3,7-dimethyl-1,2,3,7,8,8a-hexahydronaphthalen-1-yl (10-((2-(2,6-dioxopiperidin-3-yl)-1,3-dioxoisoindolin-4-yl)amino)decyl)carbamate], for which the DC50 is below 50 nM.

With `C[C@H]1C=C2C=C[C@H](C)[C@H](CC[C@@H]3C[C@@H](O)CC(=O)O3)[C@H]2[C@@H](OC(=O)NCCCCCCCCCCCNc2cccc3c2C(=O)N(C2CCC(=O)NC2=O)C3=O)C1` (stereo partly drawn) [Compound 64, (1S,3R,7S,8S,8aR)-8-(2-((2R,4R)-4-hydroxy-6-oxotetrahydro-2H-pyran-2-yl)ethyl)-3,7-dimethyl-1,2,3,7,8,8a-hexahydronaphthalen-1-yl (11-((2-(2,6-dioxopiperidin-3-yl)-1,3-dioxoisoindolin-4-yl)amino)undecyl)carbamate], the DC50 was below 50 nM. The same measure for `C[C@H]1C=C2C=C[C@H](C)[C@H](CC[C@@H]3C[C@@H](O[Si](C)(C)C(C)(C)C)CC(=O)O3)[C@H]2[C@@H](OC(=O)NCCOCCOCCNc2cccc3c2CN(C2CCC(=O)NC2=O)C3=O)C1` (stereo partly drawn) [Compound 65, (1S,3R,7S,8S,8aR)-8-(2-((2R,4R)-4-((tert-butyldimethylsilyl)oxy)-6-oxotetrahydro-2H-pyran-2-yl)ethyl)-3,7-dimethyl-1,2,3,7,8,8a-hexahydronaphthalen-1-yl (2-(2-(2-((2-(2,6-dioxopiperidin-3-yl)-1-oxoisoindolin-4-yl)amino)ethoxy)ethoxy)ethyl)carbamate]: below 50 nM; for `C[C@H]1C=C2C=C[C@H](C)[C@H](CC[C@@H]3C[C@@H](O)CC(=O)O3)[C@H]2[C@@H](OC(=O)NCCOCCOCCNc2cccc3c2CN(C2CCC(=O)NC2=O)C3=O)C1` (stereo partly drawn) [Compound 66, (1S,3R,7S,8S,8aR)-8-(2-((2R,4R)-4-hydroxy-6-oxotetrahydro-2H-pyran-2-yl)ethyl)-3,7-dimethyl-1,2,3,7,8,8a-hexahydronaphthalen-1-yl (2-(2-(2-((2-(2,6-dioxopiperidin-3-yl)-1-oxoisoindolin-4-yl)amino)ethoxy)ethoxy)ethyl)carbamate]: below 50 nM.

Take `C[C@H]1C=C2C=C[C@H](C)[C@H](CC[C@@H]3C[C@@H](O[Si](C)(C)C(C)(C)C)CC(=O)O3)[C@H]2[C@@H](OC(=O)NCCOCCOCCNc2ccc3c(c2)C(=O)N(C2CCC(=O)NC2=O)C3=O)C1` (stereo partly drawn) [Compound 67, (1S,3R,7S,8S,8aR)-8-(2-((2R,4R)-4-((tert-butyldimethylsilyl)oxy)-6-oxotetrahydro-2H-pyran-2-yl)ethyl)-3,7-dimethyl-1,2,3,7,8,8a-hexahydronaphthalen-1-yl (2-(2-(2-((2-(2,6-dioxopiperidin-3-yl)-1,3-dioxoisoindolin-5-yl)amino)ethoxy)ethoxy)ethyl)carbamate]: the DC50 is below 50 nM.

Take `C[C@H]1C=C2C=C[C@H](C)[C@H](CC[C@@H]3C[C@@H](O)CC(=O)O3)[C@H]2[C@@H](OC(=O)NCCOCCOCCNc2ccc3c(c2)C(=O)N(C2CCC(=O)NC2=O)C3=O)C1` (stereo partly drawn) [Compound 68, (1S,3R,7S,8S,8aR)-8-(2-((2R,4R)-4-hydroxy-6-oxotetrahydro-2H-pyran-2-yl)ethyl)-3,7-dimethyl-1,2,3,7,8,8a-hexahydronaphthalen-1-yl (2-(2-(2-((2-(2,6-dioxopiperidin-3-yl)-1,3-dioxoisoindolin-5-yl)amino)ethoxy)ethoxy)ethyl)carbamate]: the DC50 is below 50 nM.

On to `CO[C@H]1CC(=O)O[C@H](CC[C@@H]2[C@@H]3C(=C[C@H](C)C[C@@H]3OC(=O)NCCOCCOCCNc3cccc4c3C(=O)N(C3CCC(=O)NC3=O)C4=O)C=C[C@@H]2C)C1` (stereo partly drawn) [Compound 69, (1S,3R,7S,8S,8aR)-8-(2-((2R,4R)-4-methoxy-6-oxotetrahydro-2H-pyran-2-yl)ethyl)-3,7-dimethyl-1,2,3,7,8,8a-hexahydronaphthalen-1-yl (2-(2-(2-((2-(2,6-dioxopiperidin-3-yl)-1,3-dioxoisoindolin-4-yl)amino)ethoxy)ethoxy)ethyl)carbamate], for which the DC50 is below 50 nM. On to `CC(C)[Si](O[C@H]1CC(=O)O[C@H](CC[C@@H]2[C@@H]3C(=C[C@H](C)C[C@@H]3OC(=O)NCCOCCOCCNc3cccc4c3C(=O)N(C3CCC(=O)NC3=O)C4=O)C=C[C@@H]2C)C1)(C(C)C)C(C)C` (stereo partly drawn) [Compound 70, (1S,3R,7S,8S,8aR)-3,7-dimethyl-8-(2-((2R,4R)-6-oxo-4-((triisopropylsilyl)oxy)tetrahydro-2H-pyran-2-yl)ethyl)-1,2,3,7,8,8a-hexahydronaphthalen-1-yl (2-(2-(2-((2-(2,6-dioxopiperidin-3-yl)-1,3-dioxoisoindolin-4-yl)amino)ethoxy)ethoxy)ethyl)carbamate], for which the DC50 was below 50 nM. With `C[C@H]1C=C2C=C[C@H](C)[C@H](CC[C@@H]3C[C@@H](O[Si](c4ccccc4)(c4ccccc4)C(C)(C)C)CC(=O)O3)[C@H]2[C@@H](OC(=O)NCCOCCOCCNc2cccc3c2C(=O)N(C2CCC(=O)NC2=O)C3=O)C1` (stereo partly drawn) [Compound 71, (1S,3R,7S,8S,8aR)-8-(2-((2R,4R)-4-((tert-butyldiphenylsilyl)oxy)-6-oxotetrahydro-2H-pyran-2-yl)ethyl)-3,7-dimethyl-1,2,3,7,8,8a-hexahydronaphthalen-1-yl (2-(2-(2-((2-(2,6-dioxopiperidin-3-yl)-1,3-dioxoisoindolin-4-yl)amino)ethoxy)ethoxy)ethyl)carbamate] the figure was below 50 nM.
